Several values for one entry are separate records, joined by “and”; a condition that tells them apart may be missing. Equal entries are not always repeated. Numbers after ± are expanded uncertainties.
Tests used:
[1] = Liquid
[2] = xn = mol fraction of the nth substance listed; conditions: 101.33 kPa, Liquid, x2 = 0

ClCCCl [1,2-dichloroethane]
[1]
Conditions | mass density [kg/m3]
288.15 K, 101.33 kPa | 1260.13 ± 0.86
298.15 K, 101.33 kPa | 1246.59 ± 0.83
298.15 K, 200 kPa | 1245.68 ± 0.6
298.15 K, 500 kPa | 1246.02 ± 0.61
298.15 K, 1100 kPa | 1246.54 ± 0.63
298.15 K, 2000 kPa | 1247.41 ± 0.66
298.15 K, 3100 kPa | 1248.51 ± 0.7
298.15 K, 4100 kPa | 1249.53 ± 0.74
298.15 K, 5100 kPa | 1250.32 ± 0.78
298.15 K, 6100 kPa | 1251.22 ± 0.81
298.15 K, 7100 kPa | 1252.27 ± 0.85
298.15 K, 8000 kPa | 1253.07 ± 0.89
298.15 K, 8900 kPa | 1254 ± 0.92
298.15 K, 10100 kPa | 1255.18 ± 0.97
298.15 K, 12000 kPa | 1256.96 ± 1.1
298.15 K, 13900 kPa | 1258.84 ± 1.1
298.15 K, 15700 kPa | 1260.48 ± 1.2
298.15 K, 17700 kPa | 1262.37 ± 1.3
298.15 K, 19700 kPa | 1264.29 ± 1.4
308.15 K, 101.33 kPa | 1231.27 ± 0.79

ClCCBr [1-bromo-2-chloroethane]
[1]
Conditions | mass density [kg/m3]
288.15 K, 101.33 kPa | 1744.36 ± 2.6
298.15 K, 101.33 kPa | 1727.88 ± 2.6
298.15 K, 200 kPa | 1726.08 ± 2.2
298.15 K, 500 kPa | 1726.48 ± 2.2
298.15 K, 900 kPa | 1726.94 ± 2.2
298.15 K, 2000 kPa | 1728.17 ± 2.3
298.15 K, 2900 kPa | 1729.14 ± 2.4
298.15 K, 4100 kPa | 1730.57 ± 2.5
298.15 K, 4800 kPa | 1731.35 ± 2.5
298.15 K, 6000 kPa | 1732.77 ± 2.6
298.15 K, 6800 kPa | 1733.74 ± 2.7
298.15 K, 8000 kPa | 1735.1 ± 2.8
298.15 K, 8700 kPa | 1736.13 ± 2.9
298.15 K, 9600 kPa | 1737.17 ± 3
298.15 K, 11700 kPa | 1739.6 ± 3.2
298.15 K, 13900 kPa | 1742.49 ± 3.4
298.15 K, 15600 kPa | 1744.52 ± 3.5
298.15 K, 17600 kPa | 1747.12 ± 3.8
298.15 K, 19400 kPa | 1749.48 ± 4
308.15 K, 101.33 kPa | 1708.86 ± 2.5

ClCBr [bromochloromethane]
[1]
Conditions | mass density [kg/m3]
288.15 K, 101.33 kPa | 1945.94 ± 2.6
298.15 K, 101.33 kPa | 1924.88 ± 2.5
298.15 K, 200 kPa | 1923.54 ± 1.9
298.15 K, 500 kPa | 1923.88 ± 1.9
298.15 K, 1000 kPa | 1924.64 ± 2
298.15 K, 2100 kPa | 1926.24 ± 2.1
298.15 K, 2900 kPa | 1927.62 ± 2.2
298.15 K, 3800 kPa | 1928.77 ± 2.3
298.15 K, 4900 kPa | 1930.51 ± 2.5
298.15 K, 5900 kPa | 1932.03 ± 2.6
298.15 K, 7000 kPa | 1933.43 ± 2.8
298.15 K, 8000 kPa | 1934.88 ± 2.9
298.15 K, 8800 kPa | 1936.36 ± 3
298.15 K, 9800 kPa | 1937.83 ± 3.2
298.15 K, 11800 kPa | 1940.79 ± 3.4
298.15 K, 13900 kPa | 1944.25 ± 3.8
298.15 K, 15700 kPa | 1947.01 ± 4
298.15 K, 17800 kPa | 1950.26 ± 4.3
298.15 K, 19600 kPa | 1953.16 ± 4.6
308.15 K, 101.33 kPa | 1900.86 ± 2.5

BrCBr [dibromomethane]
[1]
Conditions | mass density [kg/m3]
288.15 K, 101.33 kPa | 2501.88 ± 4.2
298.15 K, 101.33 kPa | 2478.37 ± 4.1
298.15 K, 200 kPa | 2477.56 ± 3.1
298.15 K, 300 kPa | 2477.92 ± 3.1
298.15 K, 600 kPa | 2478.35 ± 3.2
298.15 K, 1000 kPa | 2478.9 ± 3.2
298.15 K, 2100 kPa | 2480.41 ± 3.5
298.15 K, 3000 kPa | 2481.88 ± 3.6
298.15 K, 4100 kPa | 2483.5 ± 3.9
298.15 K, 5000 kPa | 2484.84 ± 4
298.15 K, 5900 kPa | 2486.26 ± 4.2
298.15 K, 6900 kPa | 2487.82 ± 4.4
298.15 K, 8000 kPa | 2489.54 ± 4.7
298.15 K, 8800 kPa | 2490.92 ± 4.8
298.15 K, 9800 kPa | 2492.58 ± 5.1
298.15 K, 11800 kPa | 2494.98 ± 5.5
298.15 K, 13700 kPa | 2498.59 ± 5.9
298.15 K, 15800 kPa | 2502.33 ± 6.4
298.15 K, 15900 kPa | 2502.49 ± 6.4
298.15 K, 17700 kPa | 2505.74 ± 6.9
298.15 K, 19200 kPa | 2508.69 ± 7.2
298.15 K, 19300 kPa | 2508.84 ± 7.2
308.15 K, 101.33 kPa | 2451.74 ± 4

CCOC(C)=O [ethyl acetate]
[1]
Conditions | mass density
288.15 K, 101.33 kPa | 906.71 ± 0.47 kg/m3
298.15 K, 101.33 kPa | 894.97 ± 0.49 kg/m3
298.15 K, 200 kPa | 894.2 ± 0.37 kg/m3
298.15 K, 600 kPa | 894.65 ± 0.37 kg/m3
298.15 K, 1100 kPa | 895.18 ± 0.38 kg/m3
298.15 K, 2100 kPa | 896.14 ± 0.39 kg/m3
298.15 K, 2900 kPa | 897.1 ± 0.4 kg/m3
298.15 K, 4000 kPa | 898.2 ± 0.41 kg/m3
298.15 K, 5100 kPa | 899.22 ± 0.43 kg/m3
298.15 K, 6000 kPa | 900.19 ± 0.44 kg/m3
298.15 K, 7000 kPa | 901.11 ± 0.45 kg/m3
298.15 K, 8000 kPa | 902.12 ± 0.46 kg/m3
298.15 K, 8900 kPa | 902.88 ± 0.47 kg/m3
298.15 K, 9900 kPa | 903.88 ± 0.48 kg/m3
298.15 K, 11700 kPa | 905.54 ± 0.5 kg/m3
298.15 K, 13800 kPa | 907.54 ± 0.52 kg/m3
298.15 K, 16000 kPa | 909.45 ± 0.54 kg/m3
298.15 K, 17600 kPa | 910.84 ± 0.56 kg/m3
298.15 K, 19500 kPa | 912.59 ± 0.57 kg/m3
308.15 K, 101.33 kPa | 882.27 ± 0.51 kg/m3 and 881.87 ± 0.51 kg/m3

CCOC(C)=O [ethyl acetate] + BrCBr
[2]
Conditions | mass density [kg/m3]
288.15 K | 906.71 ± 0.47
298.15 K | 894.97 ± 0.49
308.15 K | 882.27 ± 0.51

CCOC(C)=O [ethyl acetate] + ClCBr
[2]
Conditions | mass density [kg/m3]
288.15 K | 906.71 ± 0.47
298.15 K | 894.97 ± 0.49
308.15 K | 881.87 ± 0.51

CCOC(C)=O [ethyl acetate] + ClCCBr
[2]
Conditions | mass density [kg/m3]
288.15 K | 906.71 ± 0.47
298.15 K | 894.97 ± 0.49
308.15 K | 882.27 ± 0.51

CCOC(C)=O [ethyl acetate] + ClCCCl
[2]
Conditions | mass density [kg/m3]
288.15 K | 906.71 ± 0.47
298.15 K | 894.97 ± 0.49
308.15 K | 882.27 ± 0.51

Source: the NIST ThermoML archive (doi:10.1007/s10765-005-5570-x)
